Assay results as given in PMC11413854, “Reversible Control of Native GluN2B-Containing NMDA Receptors with Visible Light” (ACS Chemical Neuroscience, 2024).
Where “and” joins values, the source holds several entries; their conditions need not be identical. Equal values may be shown once.

How the values were obtained:
[1] = Photostationary state (cis/trans) composition in solution by HPLC, UV-vis or 1H NMR; format: physicochemical; settings: for % of trans in solution: Fig. 5J; for % of cis in solution: Figure 5E
Excerpt: To characterize the photochemical properties of OptoNAM-3, we focused on the three key properties allowing the use of azobenzenes in biological systems: (i) wavelengths for trans-to-cis and cis-to-trans conversions; (ii) compound thermalstability, i.e., half-life of the cis isomer in the dark; and (iii) fatigability, i.e., the number of illumination cycles that the molecule can undergo without degradation. To this aim, we acquired UV–visible absorption spectra of OptoNAM-3 diluted in Xenopus oocyte recording solution (Ringer pH 7.3; see Methods) either in the dark (absence of illumination) or after illumination by light wavelengths ranging from 350 to 580 nm (Figures 2B and S1M). In the dark (black curve in Figure 2B), the spectrum was characteristic of a trans isomer.[32] Application of UV light at a wavelength close to the main absorption peak of the trans form (365 or 350 nm) gave a completely different spectrum (violet curves in Figure 2B), characteristic of azobenzenes in their cis configuration.[32] HPLC analysis of OptoNAM-3 in solution identified photostationary states (PSS) containing 100% trans in the dark, 82% cis and 18% residual trans after illumination at 365 nm (365 nm PSS, violet curve in Figure 2C), and 91% cis and 9% residual trans after illumination at 350 nm (350 nm PSS, lavender curve in Figure 2C). […] Irradiation of OptoNAM-3 365 nm PSS with wavelengths from 435 to 550 nm gave equivalent cis-to-trans conversions with 435 and 550 nm yielding slightly stronger conversions (∼70% trans after illumination at 435 and 550 nm calculated from UV–visible spectra at λtrans = 329 nm, Figures 2B and S1N; 550 nm PSS of 69% trans and 31% cis measured by HPLC, Figure 2C, green trace). 550 nm was chosen as the optimal wavelength since green light is less harmful for cells than lights of shorter wavelengths. We then tested the thermal stability of the cis form in the dark (in the absence of illumination). […] This very high stability is interesting because it avoids the prolonged use of light to maintain OptoNAM-3 in the desired configuration. OptoNAM-3 could finally endure many illumination cycles without degradation (Figure 2E).
UV–vis absorbance spectra were measured from in 1 cm long quartz cuvettes on a NanoPhotometer NP80 spectrometer (Implen, Germany). We used solutions of 10, 50, or 100 μM OptoNAMs diluted in Ringer at pH 7.3 (for TEVC extracellular recording solution, see below) from the 50 mM stock solution in DMSO. Photostationary states of OptoNAMs in Ringer for different illumination wavelengths were obtained by continuous illumination with multiwavelength LEDs (pE-2 and pE-4000, CoolLED, UK [power ∼75 mW]) or photochemical reactor RPR-100 Rayonet US (power ∼2 mW) for 350 nm, until no further change in the absorption spectra could be observed. For all irradiation wavelengths tested, 10 min illumination was sufficient to reach the steady state.
The cis–trans compositions of OptoNAM-3 in the dark and after illumination by 365, 350, and 550 nm were determined by HPLC using the relative integrated areas of the cis and trans peaks at the isosbestic point at 280 nm, […], considering that the sum of integrated area for two peaks is 100%. We checked that ratios measured at the isosbestic point at 390 nm were similar. Analytical HPLC was performed on an Agilent 1200 series equipped with a quaternary pump using a Nucleodur C18 HTech column from Macherey-Nagel Inc. (particle size 3 μm, 150 × 4.6 mm column). The compounds were eluted with a flow of 1 mL/min using a gradient of acetonitrile (0–100% over 15 min) in water, with both solvents containing 0.1% TFA. Detection was performed at 220, 280, and 390 nm.
The dark and 365 nm PSS were furthermore characterized by ^1H NMR spectroscopy with the OptoNAMs diluted in DMSO-d6 and the relative abundance of trans and cis isomers quantified using ^1H NMR spectra. […]

[2] = Thermal stability of the PSS in the dark and fatigability over illumination cycles; format: physicochemical; settings: for A(320 nm): Sup. Fig. 1C; for A(371 nm): Sup. Fig. 1G; for A(334 nm): Sup. Fig. 1K
Excerpt: , we focused on the three key properties allowing the use of azobenzenes in biological systems: (i) wavelengths for trans-to-cis and cis-to-trans conversions; (ii) compound thermalstability, i.e., half-life of the cis isomer in the dark; and (iii) fatigability, i.e., the number of illumination cycles that the molecule can undergo without degradation. To this aim, […] recording solution (Ringer pH 7.3; see Methods) either in the dark (absence of illumination) or after illumination by light wavelengths ranging from 350 to 580 nm (Figures 2B and S1M). In the dark (black curve in Figure 2B), the spectrum was characteristic of a trans isomer.[32] Application of UV light at a wavelength close to the main absorption peak of the trans form (365 or 350 nm) gave a completely different spectrum (violet curves in Figure 2B), characteristic of azobenzenes in their cis configuration.[32] […] states (PSS) containing 100% trans in the dark, 82% cis and 18% residual trans after illumination at 365 nm (365 nm PSS, violet curve in Figure 2C), and 91% cis and 9% residual trans after illumination at 350 nm (350 nm PSS, lavender curve in Figure 2C). […] from 435 to 550 nm gave equivalent cis-to-trans conversions with 435 and 550 nm yielding slightly stronger conversions (∼70% trans after illumination at 435 and 550 nm calculated from UV–visible spectra at λtrans = 329 nm, Figures 2B and S1N; 550 nm PSS of 69% trans and 31% cis measured by HPLC, Figure 2C, green trace). 550 nm was chosen as the optimal wavelength since green light is less harmful for cells than lights of shorter wavelengths. We then tested the thermal stability of the cis form in the dark (in the absence of illumination). […]
Thermal stability of the cis state (365 nm PSS) was measured by irradiating the solution with 365 nm light during 10 min, then letting it relax in the dark, at room temperature (20–22 °C), inside the spectrophotometer. Spectra were acquired at regular intervals, up to 1 day, after irradiation.

[3] = physiological buffer, UV-visible, measured at λtrans
[4] = Ringer pH 7.3, room temperature
[5] = HPLC, physiological aqueous buffer
[6] = in solution, UV-visible spectra
[7] = in solution, calculated from UV-visible spectra at 329 nm

Nc1ccnc(/N=N/c2ccccc2)c1 [OptoNAM-1, (E)-2-(phenyldiazenyl)pyridin-4-amine]
trans after 440 nm irradiation of the 365 nm PSS [1, 3]: ~ 75%
thermal stability of the 365 nm PSS (mostly cis) in the dark: time without change of spectra [2, 4]: ≥ 60 min
A(320 nm) ([2]; 365 nm (t=0)): 0.092
A(320 nm) ([2]; 365 nm (t=2 min)): 0.093
A(320 nm) ([2]; 365 nm (t=5min)): 0.093
A(320 nm) ([2]; 365 nm (t=10 min)): 0.093
A(320 nm) ([2]; 365 nm (t=20min)): 0.093
A(320 nm) ([2]; 365 nm (t=40min)): 0.094
A(320 nm) ([2]; 365 nm (t=60min)): 0.094
A(320 nm) ([2]; dark): 0.207

Cc1cc(N)nc(/N=N/c2ccccc2)c1 [OptoNAM-2, (E)-4-methyl-6-(phenyldiazenyl)pyridin-2-amine]
trans after 490 nm irradiation of the 365 nm PSS [1, 3]: ~ 52%
thermal stability of the 365 nm PSS (mostly cis) in the dark: time without change of spectra [2, 4]: ≥ 60 min
A(371 nm) ([2]; 365 nm (t=0)): 0.257
A(371 nm) ([2]; 365 nm (t=1 min)): 0.255
A(371 nm) ([2]; 365 nm (t=5min)): 0.256
A(371 nm) ([2]; 365 nm (t=10 min)): 0.255
A(371 nm) ([2]; 365 nm (t=20 min)): 0.257
A(371 nm) ([2]; 365 nm (t=40min)): 0.258
A(371 nm) ([2]; 365 nm (t=60min)): 0.260

c1ccc(/N=N/c2ccc(CCNc3ccncc3)cc2)cc1 [OptoNAM-3, (E)-N-(4-(Phenyldiazenyl)phenethyl)pyridin-4-amine]
365 nm PSS, cis, in DMSO ([1]; DMSO, 1H NMR): 90%
% of trans in solution ([1]; 365 nm): 18.030%
% of trans in solution ([1]; 385 nm): 53.274%
% of trans in solution ([1]; 435 nm): 71.738%
% of trans in solution ([1]; 460 nm): 68.781%
% of trans in solution ([1]; 490 nm): 68.847%
% of trans in solution ([1]; 525 nm): 62.601%
% of trans in solution ([1]; 550 nm): 70.739%
% of trans in solution ([1]; 580 nm): 68.208%
% of cis in solution ([1]; 365 nm): 82.000%
% of cis in solution ([1]; 385 nm): 48.439%
% of cis in solution ([1]; 435 nm): 30.261%
% of cis in solution ([1]; 460 nm): 30.902%
% of cis in solution ([1]; 490 nm): 32.185%
% of cis in solution ([1]; 525 nm): 29.192%
% of cis in solution ([1]; 550 nm): 27.267%
% of cis in solution ([1]; 580 nm): 25.128%
550 nm PSS, cis ([1]; HPLC): 31%
550 nm PSS, trans ([1]; HPLC): 69%
PSS in the dark, trans ([1]; HPLC, aqueous solution): 100%
350 nm PSS, cis [1, 5]: 91%
350 nm PSS, residual trans [1, 5]: 9%
365 nm PSS, residual trans [1, 5]: 18%
365 nm PSS, cis ([1]; HPLC, physiological aqueous buffer (free OptoNAM-3)): 82%
cis after 460 nm illumination of the dark PSS [1, 6]: ~31%
cis after 550 and 580 nm illumination of the dark PSS [1, 6]: ~30%
trans after 460 nm illumination of the 365 nm PSS [1, 6]: 69%
trans after 435 nm illumination of the 365 nm PSS [1, 7]: ~70% and 72%
trans after 550 nm illumination of the 365 nm PSS [1, 7]: ~70%
thermal stability of the 550 nm PSS in the dark: time without change of spectrum [2, 4]: ≥ 24 h
cycles of UV/green illumination without degradation ([2]; absorbance at 329 nm): ≥ 10 cycles

CS(=O)(=O)Nc1ccc2nc(Cc3ccc(/N=N/c4ccccc4)cc3)[nH]c2c1 [OptoNAM-4, (E)-N-(2-(4-(phenyldiazenyl)benzyl)-1H-benzo[d]imidazol-6-yl)methanesulfonamide]
trans after 440 nm irradiation of the 365 nm PSS [1, 3]: 100%
thermal stability of the 365 nm PSS (mostly cis) in the dark: time without change of spectra [2, 4]: only little change
A(334 nm) ([2]; 365 nm (t=0)): 0.207
A(334 nm) ([2]; 365 nm (t=5 min)): 0.200
A(334 nm) ([2]; 365 nm (t=15 min)): 0.206
A(334 nm) ([2]; 365 nm (t=30min)): 0.211
A(334 nm) ([2]; 365 nm (t=40 min)): 0.208
A(334 nm) ([2]; 365 nm (t=60min)): 0.242
